# Experimental data reported in patent US5380668A (University of Utah Research Foundation, priority 1993, dated 1995).
# Where a SMILES comes first, the peptide text is derived from it. [ ]: non-standard residue; d: D form. βAla = NCCC(=O)O
# Test system: second monoclonal antibody against hCG
# Test: not given
# Conditions: not given
row,Compound,Krel (relative binding affinity)
1,"C[C@H](NC(=O)[C@H](CO)NC(=O)CNC(=O)[C@H](CO)NC(=O)CN)C(=O)NCC(=O)N1CCC[C@H]1C(=O)N[C@@H](CCCNC(=N)N)C(=O)N[C@@H](Cc1ccc(O)cc1)C(=O)N[C@@H](CC(N)=O)C(=O)N[C@@H](Cc1ccccc1)C(=O)NCC(=O)NCCC(=O)O [SEQ ID NO: 21, Gly--Ser--Gly--Ser--Ala--Gly--Pro--Arg--Tyr--Asn--Phe--Gly--βAla] (H-GSGSAGPRYNFG[βAla]-OH)",1.6
2,"CC[C@H](C)[C@H](NC(=O)[C@@H]1CCCN1C(=O)CNC(=O)[C@H](C)NC(=O)[C@H](CO)NC(=O)CNC(=O)[C@H](CO)NC(=O)CN)C(=O)N[C@@H](Cc1ccc(O)cc1)C(=O)N[C@H](C(=O)N[C@@H](Cc1ccccc1)C(=O)NCC(=O)NCCC(=O)O)C(C)C [SEQ ID NO: 19, Gly--Ser--Gly--Ser--Ala--Gly--Pro--Ile--Tyr--Val--Phe--Gly--βAla] (H-GSGSAGPIYVFG[βAla]-OH)",6.6
3,"CC(C)[C@H](NC(=O)[C@@H]1CCCN1C(=O)CNC(=O)[C@H](C)NC(=O)[C@H](CO)NC(=O)CNC(=O)[C@H](CO)NC(=O)CN)C(=O)N[C@@H](Cc1ccc(O)cc1)C(=O)N[C@@H](CO)C(=O)N[C@@H](Cc1ccccc1)C(=O)NCC(=O)NCCC(=O)O [SEQ ID NO: 20, Gly--Ser--Gly--Ser--Ala--Gly--Pro--Val--Tyr--Ser--Phe--Gly--βAla] (H-GSGSAGPVYSFG[βAla]-OH)",2.0
4,"CC[C@H](C)[C@H](NC(=O)[C@@H]1CCCN1C(=O)CNC(=O)[C@H](C)NC(=O)[C@H](CO)NC(=O)CNC(=O)[C@H](CO)NC(=O)CN)C(=O)N[C@@H](Cc1ccc(O)cc1)C(=O)N[C@@H](CC(=O)O)C(=O)N[C@@H](Cc1ccccc1)C(=O)NCC(=O)NCCC(=O)O [SEQ ID NO: 22, Gly--Ser--Gly--Ser--Ala--Gly--Pro--Ile--Tyr--Asp--Phe--Gly--βAla] (H-GSGSAGPIYDFG[βAla]-OH)",1.3
5,"CSCC[C@H](NC(=O)[C@H](Cc1ccc(O)cc1)NC(=O)[C@H](CCC(N)=O)NC(=O)[C@@H]1CCCN1C(=O)CNC(=O)[C@H](C)NC(=O)[C@H](CO)NC(=O)CNC(=O)[C@H](CO)NC(=O)CN)C(=O)N[C@@H](Cc1ccccc1)C(=O)NCC(=O)NCCC(=O)O [SEQ ID NO: 23, Gly--Ser--Gly--Ser--Ala--Gly--Pro--Gln--Tyr--Met--Phe--Gly--βAla] (H-GSGSAGPQYMFG[βAla]-OH)",1.0

# Test system: anti-hCG monoclonal antibody directed against a portion of the β-subunit of hCG
# Test: EIA binding of BSA-conjugated peptide with anti-hCG monoclonal antibody
# Conditions: peptide conjugated to BSA, absorbed on 96-well plate; antibody overnight at 4° C; alkaline phosphatase labeled protein A
# Text: The peptide was conjugated through its thiol group to BSA using a heterobifunctional cross-linking reagent (succinimidyl 4-(N-maleimidomethyl)cyclohexane-1-carboxylate). The conjugates were first absorbed on the wells of a ninety-six well plate. Nonspecific binding sites on the surface was masked by unlabeled BSA. […] Alkaline phosphatase labeled protein A was used for the color development.
row,Compound,binding with anti-hCG antibody (EIA response)
1,H2 N-Gly-Gly-Arg-Leu-Pro-Gly-Pro-Ser-Asp-Cys-Gly-COOH (H-GGRLPGPSDCG-OH) [EXAMPLE I],positive results
